In experiment [1] the test system is adrenaline-induced arrhythmia. Nature of the experiment: Prophylactic antiarrhythmic activity, adrenaline-induced arrhythmia in anesthetized rats. Type of experiment: in vivo, rat. As to conditions: limits in brackets; for ED50 iv (dose producing 50% inhibition of premature ventricular beats): iv 15 min before adrenaline 20 μg∙kg^-1 iv; for ED50 po (dose producing 50% inhibition of premature ventricular beats): orally (intragastric) 60 min before adrenaline 20 μg∙kg^-1 iv. How it is done:
The prophylactic antiarrhythmic activity of compounds 10 and 11 was determined using an adrenaline-induced arrhythmia model of in anesthetized rats.
Arrhythmia was evoked in thiopental (60 mg kg^-1, ip) – anaesthetized rats by iv injection of adrenaline (20 μg kg^-1). The tested compounds were administered intravenously 15 min or orally 60 min before adrenaline. […] The cardiac rhythm disturbances were recorded for 15 min after adrenaline injection. ECGs were analyzed according to the guidelines of the Lambeth Convention on ventricular premature beats (VBs), bigeminy, salvos (less than four successive VBs), ventricular tachycardia (VT, four or more successive VBs), and ventricular fibrillation (VF).

Experiment [2] addresses α2-adrenoceptors. As to the kind of experiment: Radioligand binding assay, displacement of [3H]Clonidine, rat cerebral cortex. As to conditions: [3H]Clonidine 2 nM, ± SEM. The protocol: (§1) The experiment was carried out on rat cerebral cortex. […] The brains were homogenised in 20 vol of an ice-cold 50 mM Tris–HCl buffer (pH 7.6), and were centrifuged at 20.000 × g for 20 min (0–4 °C). The cell pellet was resuspended in the Tris–HCl buffer and centrifuged again. Radioligand binding assays were performed in plates (MultiScreen/Millipore). The final incubation mixture (final volume 300 μL) consisted of 240 μL of the membrane suspension, 30 μL of [^3H]Prazosin (0.2 nM), [^3H]Clonidine (2 nM) or [^3H]CGP12177 (0.2 nM) solution, and 30 μL of the buffer containing seven to eight concentrations (10^–11–10^–4 M) of the tested compounds. […] The incubation was terminated by rapid filtration over glass fibre filters (Whatman GF/C) using a vacuum manifold (Millipore). The filters were then washed twice with the assay buffer and placed in scintillation vials with a liquid scintillation cocktail. Radioactivity was measured in a WALLAC 1409 DSA liquid scintillation counter. All the assays were made in duplicate. The radioligand binding data were analyzed using an iterative curve-fitting routine (GraphPAD/Prism, Version 3.0, San Diego, CA, USA). Ki values were calculated from the Cheng and Prusoff equation [25].

Experiment [3] has as its target α1-adrenoceptors. As to the kind of experiment: Radioligand binding assay, displacement of [3H]Prazosin, rat cerebral cortex. The settings on record: for Ki: rat cerebral cortex, [3H]Prazosin 0.2 nM, ± SEM. How it is done: as §1
For experiment [4], the system named is anesthetized male Wistar rats. Nature of the experiment: Effect on normal electrocardiogram (ECG) in vivo in rats. Also on record: species or system rat. The settings on record: 1 mg∙kg^-1 iv, mean ± SEM. The protocol:
The effects on ECG intervals and heart rate were determined for all tested compounds at the same dose of 1 mg∙kg^-1.
Electrocardiographic measurement was carried out using the Ascard B5 Eco apparatus, standard lead II, and paper speed of 50 mm∙s^-1. The tested compounds were administered intravenously in a dose of 1 mg∙kg^-1. The ECG recording was carried out immediately before and 1, 5 and 15 min after administration of the tested compounds. The effect of the compounds on rat ECG recording was calculated according to Cambridge et al..

Experiment [5] has as its system isolated rabbit small intestine. Nature of the experiment: Influence on spontaneous contractions of isolated rabbit ileum. As to conditions: for Amplitude of contractions / Frequency of contractions: mean ± SEM. The protocol:
The influence on isolated rabbit ileum of the investigated compounds on the smooth muscle was investigated on the rabbit small intestine, according to the Magnus’ method modified and described by Orisadipe et al. The white rabbits were sacrificed by cervical dislocation and the small intestine was immediately removed, and cut into strips about 3–4 cm long. The isolated strips were incubated in Krebs solution at 37 °C and aerated with carbogen in special laboratory dishes. The isolated strip of the intestine was placed in a test glass tube with the Krebs solution constantly aerated by carbogen. After 1 hour incubation period, during which the physiological saline solution was changed every 15 min, the influence of the investigated compounds on spontaneous contractions of the rabbit ileum was evaluated. The contraction of the intestine was recorded on a TZ-4100 line recorder via isometric Harvard transducer, at the muscle load of 1 g. The influence of every single dose was recorded for 5 min.

The subject of experiment [6] is normotensive anesthetized rats. As to the kind of experiment: Influence on blood pressure in normotensive anesthetized rats. Type of experiment: in vivo, rat. How it is done: Hypotensive activity of compounds 10 and 11 was determined after iv and po administration to normotensive anesthetized rats.
Male Wistar normotensive rats were anesthetized with thiopental (50–75 mg kg^-1, ip). The right carotid artery was cannulated with a polyethylene tube, filled with heparin in saline to facilitate pressure measurement using the Datamax apparatus (Columbus Instruments). […]

[7] abbreviates: time 0 min (immediately before administration, baseline).
[8] abbreviates: concentration 0 (control before 10^-5 M).
The mark [9] stands for this setting: concentration 0 (control before 10^-6 M).
The mark [10] stands for this setting: concentration 0 (control before 10^-7 M).
The mark [11] stands for this setting: concentration 0 (control before 10^-8 M).
Setting [12] is: concentration 0 (control before 10^-9 M).
Setting [13] is: po, 2 mg∙kg^-1, from 40 to 90 min.

Values joined by “and” are separate entries in the source; they are usually repeats but may differ in a detail not shown here. Identical values can stand only once. Marks after values point to notes of the source that are not given here.

As for `COc1ccccc1OCCNCC(O)COc1cccc2[nH]ccc12` (racemic) [(R,S)-9, (2R,S)-1-(1H-indol-4-yloxy)-3-(2-(2-methoxyphenoxy)ethylamino)propan-2-ol, reference compound], the “ED50 iv (dose producing 50% inhibition of premature ventricular beats)” value in experiment [1] is given as […]. Also, the “ED50 po (dose producing 50% inhibition of premature ventricular beats)” value in experiment [1] is given as […]. Besides, the Ki in experiment [2] was determined as 1400 ± 400 nM; in experiment [3], […]. The “P–Q” value in experiment [4] (1 min after administration) is on record as […]; in experiment [4] (15 min after administration) it was […]; in experiment [4] (setting [7]) it was […]. For the same compound, the QRS in experiment [4] (1 min after administration) turned out to be […]; in experiment [4] (5 min after administration) it was […]; in experiment [4] (15 min after administration), […]; in experiment [4] (setting [7]) it was […]. Moreover, the “Q–T” value in experiment [4] (1 min after administration) worked out at […]; in experiment [4] (5 min after administration), […]; in experiment [4] (15 min after administration) it was […]; in experiment [4] (setting [7]), […]. For the same compound, the heart rate in experiment [4] (1 min after administration) was found to be […]; in experiment [4] (5 min after administration), […]; in experiment [4] (15 min after administration), […]; in experiment [4] (setting [7]), […].
Compound `COc1ccccc1OCCNCC(O)COc1cccc2[nH]c3ccccc3c12` (stereo not shown) [Carvedilol, reference compound] showed a heart rate in experiment [4] (setting [7]) of 356.7 ± 21.0 Beats/min.
In the case of `COCc1cc2[nH]ccc2c(OC)c1OCC(O)CNCCOc1ccccc1OC` [Compound 10, (2R,S)-1-(4-Methoxy-6-(methoxymethyl)-1H-indol-5-yloxy)-3-(2-(2-methoxyphenoxy)ethylamino)propan-2-ol], the “ED50 iv (dose producing 50% inhibition of premature ventricular beats)” value in experiment [1] was 0.35 (0.18–0.72) mg∙kg^-1. Also, in experiment [1], the “ED50 po (dose producing 50% inhibition of premature ventricular beats)” value is 1.71 mg∙kg^-1 and 1.71 (1.52 ± 1.93) mg∙kg^-1. Further, the Ki in experiment [2] was found to be 307 ± 11.7 nM; in experiment [3], 5.9 ± 0.3 nM. Further, the “increased frequency of contractions” value in experiment [5] (10^-5 M) is reported as “about 8%”. Further, the Amplitude of contractions in experiment [5] (10^-5 M) was 1.11 ± 0.09^c g; in experiment [5] (10^-6 M) it was 1.10 ± 0.07^c g; in experiment [5] (10^-7 M), 1.29 ± 0.05^a g; in experiment [5] (10^-8 M), 1.31 ± 0.06^b g; in experiment [5] (10^-9 M) it was 1.56 ± 0.06 g; in experiment [5] (setting [8]), 1.72 ± 0.11 g. Besides, the Amplitude of contractions came to 1.63 ± 0.10 g in experiment [5] (setting [9]), 1.55 ± 0.10 g in experiment [5] (setting [10]), 1.53 ± 0.06 g in experiment [5] (setting [11]) and 1.43 ± 0.06 g in experiment [5] (setting [12]). Moreover, the Frequency of contractions is 10.70 ± 0.25^a min ^-1 in experiment [5] (10^-5 M); 11.60 ± 0.22 min ^-1 in experiment [5] (10^-6 M); 12.15 ± 0.15 min ^-1 in experiment [5] (10^-7 M); 12.15 ± 0.18 min ^-1 in experiment [5] (10^-8 M); 12.14 ± 0.22 min ^-1 in experiment [5] (10^-9 M); 11.61 ± 0.27 min ^-1 in experiment [5] (setting [8]). The Frequency of contractions in experiment [5] (setting [9]) was determined as 12.24 ± 0.25 min ^-1; in experiment [5] (setting [10]), 12.05 ± 0.19 min ^-1; in experiment [5] (setting [11]) it was 11.77 ± 0.14 min ^-1; in experiment [5] (setting [12]) it was 12.74 ± 0.20 min ^-1. The “diminished amplitude of contractions” value in experiment [5] (range of concentrations 10^-8–10^-5 M) fell in the range of 14 to 35%. In experiment [3] (from Ki values of Table 1), the “selectivity towards α1-adrenergic receptors” value was found to be 52 fold. In addition, the “P–Q” value in experiment [4] (1 min after administration) is listed as 45.6 ± 1.6^b ms; in experiment [4] (5 min after administration) it was 46.8 ± 1.6^c ms; in experiment [4] (15 min after administration), 46.4 ± 1.6^c ms; in experiment [4] (setting [7]), 40.4 ± 0.4 ms. The QRS is recorded as 31.2 ± 0.5^c ms in experiment [4] (1 min after administration), 31.2 ± 1.0^c ms in experiment [4] (5 min after administration), 32.4 ± 0.8^d ms in experiment [4] (15 min after administration) and 27.6 ± 0.8 ms in experiment [4] (setting [7]). Further, the “Q–T” value in experiment [4] (1 min after administration) is given as 92.0 ± 4.2 ms; in experiment [4] (5 min after administration), 100.0 ± 2.8 ms; in experiment [4] (15 min after administration), 104.0 ± 1.4^a ms; in experiment [4] (setting [7]) it was 94.4 ± 2.8 ms. The heart rate in experiment [4] (1 min after administration) came to 334.0 ± 13.0 Beats/min; in experiment [4] (5 min after administration) it was 309.6 ± 13.7 Beats/min; in experiment [4] (15 min after administration), 297.4 ± 12.4 Beats/min; in experiment [4] (setting [7]), 329.4 ± 12.2 Beats/min. Moreover, in experiment [6] (iv, 0.25 mg·kg^-1), the “time after administration in which diastolic blood pressure was decreased” value worked out at 10 min. Further, the “time after administration in which systolic blood pressure was decreased” value in experiment [6] (iv, 0.25 mg·kg^-1) is 20 min. In addition, the “time over which diastolic blood pressure was significantly decreased” value in experiment [6] (iv, 0.5 mg∙kg^-1) was no more than 10 min. Moreover, the “decrease of systolic blood pressure” value in experiment [6] (iv, 0.5 mg∙kg^-1, throughout the whole observation period) is recorded as 8–14%; in experiment [6] (setting [13]) it was 9–18%. Further, in experiment [6] (po, 1 mg∙kg^-1), the hypotensive activity entry was “disappeared”. Further, in experiment [6] (setting [13]), the “decrease of diastolic blood pressure” value was 11–23%.

(Values after PMC6264682, “Synthesis and Adrenolytic Activity of New Propanolamines” (Molecules, 2010).)
